Measurements: patent publication US20220289715A1, “PESTICIDALLY ACTIVE PYRAZINE-AMIDE COMPOUNDS” (priority 2019, published 2022)

Columns and labels:
Format in all cases: in vivo
[1] = system: Diabrotica balteata (Corn Root Worm); test: Example B1: Diabrotica balteata, spray on maize sprouts; details: 96 h, application rate of 200 ppm, L2 larvae, 4 days after infestation, read-out: control in at least one of the two categories (mortality or growth inhibition)
Procedure: Example B1: Diabrotica balteata (Corn Root Worm)
Maize sprouts placed onto an agar layer in 24-well microtiter plates were treated with aqueous test solutions prepared from 10,000 ppm DMSO stock solutions by spraying. After drying, the plates were infested with L2 larvae (6 to 10 per well). The samples were assessed for mortality and growth inhibition in comparison to untreated samples 4 days after infestation.
(§1) The following compounds gave an effect of at least 80% control in at least one of the two categories (mortality or growth inhibition) at an application rate of 200 ppm: […]

[2] = system: Chilo suppressalis (Striped Rice Stemborer); test: Example B3: Chilo suppressalis, artificial diet; details: 144 h, application rate of 200 ppm, L2 larvae, 6 days after infestation, read-out: control in at least one of the three categories (mortality, anti-feedant effect, or growth inhibition)
Procedure: Example B3: Chilo suppressalis (Striped Rice Stemborer)
24-well microtiter plates with artificial diet were treated with aqueous test solutions prepared from 10,000 ppm DMSO stock solutions by pipetting. After drying, the plates were infested with L2 larvae (6-8 per well). The samples were assessed for mortality, anti-feeding effect, and growth inhibition in comparison to untreated samples 6 days after infestation. Control of Chilo suppressalis by a test sample is given when at least one of the categories mortality, anti-feedant effect, and growth inhibition is higher than the untreated sample.

[3] = system: Plutella xylostella (Diamond Back Moth); test: Example B4: Plutella xylostella, artificial diet, 24-well; details: 192 h, application rate of 200 ppm, eggs, 8 days after infestation, read-out: control in at least one of the two categories (mortality or growth inhibition)
Procedure: Example B4: Plutella xylostella (Diamond Back Moth)
24-well microtiter plates with artificial diet were treated with aqueous test solutions prepared from 10,000 ppm DMSO stock solutions by pipetting. After drying, Plutella eggs were pipetted through a plastic stencil onto a gel blotting paper and the plate was closed with it. The samples were assessed for mortality and growth inhibition in comparison to untreated samples 8 days after infestation.
as §1

[4] = system: Spodoptera littoralis (Egyptian Cotton Leaf Worm); test: Example B6: Spodoptera littoralis, spray on cotton leaf discs; details: foliar, 72 h, application rate of 200 ppm, L1 larvae, 3 days after infestation, read-out: control in at least one of the three categories (mortality, anti-feedant effect, or growth inhibition)
Procedure: Example B6: Spodoptera littoralis (Egyptian Cotton Leaf Worm)
Cotton leaf discs were placed onto agar in 24-well microtiter plates and sprayed with aqueous test solutions prepared from 10,000 ppm DMSO stock solutions. After drying the leaf discs were infested with five L1 larvae. The samples were assessed for mortality, anti-feeding effect, and growth inhibition in comparison to untreated samples 3 days after infestation. Control of Spodoptera littoralis by a test sample is given when at least one of the categories mortality, anti-feedant effect, and growth inhibition is higher than the untreated sample.

[5] = system: Plutella xylostella (Diamondback Moth); test: Example B9: Plutella xylostella, artificial diet, 96-well; details: 216 h, application rate of 500 ppm, eggs/L1 larvae, 9 days after infestation
Procedure: Example B9: Plutella xylostella (Diamondback Moth)
96-well microtiter plates containing artificial diet were treated with aqueous test solutions, prepared from 10,000 ppm DMSO stock solutions, by a liquid handling robot. After drying, eggs (˜30 per well) were infested onto a netted lid which was suspended above the diet. The eggs hatch and L1 larvae move down to the diet. The samples were assessed for mortality 9 days after infestation.
The following compounds gave an effect of at least 80% mortality at an application rate of 500 ppm: […]

[6] = system: Euschistus heros (Neotropical Brown Stink Bug); test: Example B2: Euschistus heros, spray on soybean leaves; details: 120 h, application rate of 200 ppm, N2 nymphs, 5 days after infestation, read-out: control in at least one of the two categories (mortality or growth inhibition)
Procedure: Example B2: Euschistus heros (Neotropical Brown Stink Bug)
Soybean leaves on agar in 24-well microtiter plates were sprayed with aqueous test solutions prepared from 10,000 ppm DMSO stock solutions. After drying the leaves were infested with N2 nymphs. The samples were assessed for mortality and growth inhibition in comparison to untreated samples 5 days after infestation.
as §1

[7] = system: Myzus persicae (Green Peach Aphid); test: Example B10: Myzus persicae, sucrose solution, 96-well; details: 120 h, application rate of 50 ppm, 5 days after infestation
Description: Example B10: Myzus persicae (Green Peach Aphid)
Test compounds prepared from 10,000 ppm DMSO stock solutions were applied by a liquid handling robot into 96-well microtiter plates and mixed with a sucrose solution. Parafilm was stretched over the 96-well microtiter plate and a plastic stencil with 96 holes was placed onto the plate. Aphids were sieved into the wells directly onto the Parafilm. The infested plates were closed with a gel blotting card and a second plastic stencil and then turned upside down. The samples were assessed for mortality 5 days after infestation.

CC(NC(=O)c1cc(C2CC2C(F)(F)F)cc(C(F)(F)F)c1)c1nccnc1-n1nccn1 (centres unmarked) [Compound P9, N-[1-[3-(triazol-2-yl)pyrazin-2-yl]ethyl]-3-(trifluoromethyl)-5-[2-(trifluoromethyl)cyclopropyl]benzamide]
≥ 80%: percent control (mortality or growth inhibition) at 200 ppm [1] | percent control (mortality, anti-feedant effect or growth inhibition) at 200 ppm [2] | percent control (mortality or growth inhibition) at 200 ppm [3] | percent control (mortality, anti-feedant effect or growth inhibition) at 200 ppm [4] | mortality at 500 ppm [5]

CC(NC(=O)c1cc(C(F)(F)F)cc(C(F)(F)F)c1)c1nccnc1-n1nc2ccccc2n1 (centres unmarked) [Compound P52, N-[1-[3-(benzotriazol-2-yl)pyrazin-2-yl]ethyl]-3,5-bis(trifluoromethyl)benzamide]
≥ 80%: percent control (mortality or growth inhibition) at 200 ppm [1] | percent control (mortality, anti-feedant effect or growth inhibition) at 200 ppm [2] | percent control (mortality or growth inhibition) at 200 ppm [3] | percent control (mortality, anti-feedant effect or growth inhibition) at 200 ppm [4] | mortality at 500 ppm [5]

CC(NC(=O)c1cc(C(F)(F)F)cc(C(F)(F)C2CC2)c1)c1nccnc1-n1nccn1 (centres unmarked) [Compound P17, 3-[cyclopropyl(difluoro)methyl]-N-[1-[3-(triazol-2-yl)pyrazin-2-yl]ethyl]-5-(trifluoromethyl)benzamide]
≥ 80%: percent control (mortality or growth inhibition) at 200 ppm [1] | percent control (mortality, anti-feedant effect or growth inhibition) at 200 ppm [2] | percent control (mortality or growth inhibition) at 200 ppm [3] | percent control (mortality, anti-feedant effect or growth inhibition) at 200 ppm [4] | mortality at 500 ppm [5]

CC(NC(=O)c1cc(Cl)cc(Cl)c1)c1nccnc1-n1nccn1 (centres unmarked) [Compound P20, 3,5-dichloro-N-[1-[3-(triazol-2-yl)pyrazin-2-yl]ethyl]benzamide]
≥ 80%: percent control (mortality or growth inhibition) at 200 ppm [1] | percent control (mortality or growth inhibition) at 200 ppm [6] | percent control (mortality, anti-feedant effect or growth inhibition) at 200 ppm [2] | percent control (mortality or growth inhibition) at 200 ppm [3] | percent control (mortality, anti-feedant effect or growth inhibition) at 200 ppm [4]

CC(NC(=O)c1cc(C(F)(F)F)cc(S(=O)(=O)C(F)(F)F)c1)c1nccnc1-n1nccn1 (centres unmarked) [Compound P13, N-[1-[3-(triazol-2-yl)pyrazin-2-yl]ethyl]-3-(trifluoromethyl)-5-(trifluoromethylsulfonyl)benzamide]
≥ 80%: percent control (mortality or growth inhibition) at 200 ppm [1] | percent control (mortality, anti-feedant effect or growth inhibition) at 200 ppm [2] | percent control (mortality or growth inhibition) at 200 ppm [3] | percent control (mortality, anti-feedant effect or growth inhibition) at 200 ppm [4] | mortality at 500 ppm [5]

CC(NC(=O)c1cc(C2CC2)cc(C(F)(F)F)c1)c1nccnc1-n1nccn1 (centres unmarked) [Compound P15, 3-cyclopropyl-N-[1-[3-(triazol-2-yl)pyrazin-2-yl]ethyl]-5-(trifluoromethyl)benzamide]
≥ 80%: percent control (mortality or growth inhibition) at 200 ppm [1] | percent control (mortality, anti-feedant effect or growth inhibition) at 200 ppm [2] | percent control (mortality or growth inhibition) at 200 ppm [3] | percent control (mortality, anti-feedant effect or growth inhibition) at 200 ppm [4] | mortality at 500 ppm [5]

COc1cc(OC)cc(C(=O)NC(C)c2nccnc2-n2nccn2)c1 (centres unmarked) [Compound P23, 3,5-dimethoxy-N-[1-[3-(triazol-2-yl)pyrazin-2-yl]ethyl]benzamide]
≥ 80%: percent control (mortality or growth inhibition) at 200 ppm [6] | mortality at 50 ppm [7]

CC(NC(=O)c1cc(F)cc(C(F)(F)F)c1)c1nccnc1-n1nccn1 (centres unmarked) [Compound P26, 3-fluoro-N-[1-[3-(triazol-2-yl)pyrazin-2-yl]ethyl]-5-(trifluoromethyl)benzamide]
≥ 80%: percent control (mortality or growth inhibition) at 200 ppm [1] | percent control (mortality, anti-feedant effect or growth inhibition) at 200 ppm [2] | percent control (mortality or growth inhibition) at 200 ppm [3] | percent control (mortality, anti-feedant effect or growth inhibition) at 200 ppm [4] | mortality at 500 ppm [5] | mortality at 50 ppm [7]

CC(NC(=O)c1cc(C(F)(F)F)cc(C(F)(F)F)c1)c1nccnc1-n1cncn1 (centres unmarked) [Compound P46, N-[1-[3-(1,2,4-triazol-1-yl)pyrazin-2-yl]ethyl]-3,5-bis(trifluoromethyl)benzamide]
≥ 80%: percent control (mortality or growth inhibition) at 200 ppm [6] | percent control (mortality, anti-feedant effect or growth inhibition) at 200 ppm [2] | percent control (mortality or growth inhibition) at 200 ppm [3] | percent control (mortality, anti-feedant effect or growth inhibition) at 200 ppm [4]

CC(NC(=O)c1cc(C2CC2(F)F)cc(C(F)(F)F)c1)c1nccnc1-n1nccn1 (centres unmarked) [Compound P7, 3-(2,2-difluorocyclopropyl)-N-[1-[3-(triazol-2-yl)pyrazin-2-yl]ethyl]-5-(trifluoromethyl)benzamide]
≥ 80%: percent control (mortality or growth inhibition) at 200 ppm [1] | percent control (mortality, anti-feedant effect or growth inhibition) at 200 ppm [2] | percent control (mortality or growth inhibition) at 200 ppm [3] | percent control (mortality, anti-feedant effect or growth inhibition) at 200 ppm [4] | mortality at 500 ppm [5]

CC(NC(=O)c1cc(Cl)cc(OC(F)(F)F)c1)c1nccnc1-n1nccn1 (centres unmarked) [Compound P33, 3-chloro-N-[1-[3-(triazol-2-yl)pyrazin-2-yl]ethyl]-5-(trifluoromethoxy)benzamide]
≥ 80%: percent control (mortality or growth inhibition) at 200 ppm [1] | percent control (mortality, anti-feedant effect or growth inhibition) at 200 ppm [2] | percent control (mortality or growth inhibition) at 200 ppm [3] | percent control (mortality, anti-feedant effect or growth inhibition) at 200 ppm [4] | mortality at 500 ppm [5]

CC(NC(=O)c1cc(C2CC2)nc(C(F)(F)F)c1)c1nccnc1-n1nccn1 (centres unmarked) [Compound P11, 2-cyclopropyl-N-[1-[3-(triazol-2-yl)pyrazin-2-yl]ethyl]-6-(trifluoromethyl)pyridine-4-carboxamide]
≥ 80%: percent control (mortality or growth inhibition) at 200 ppm [1] | percent control (mortality, anti-feedant effect or growth inhibition) at 200 ppm [2] | percent control (mortality or growth inhibition) at 200 ppm [3] | percent control (mortality, anti-feedant effect or growth inhibition) at 200 ppm [4] | mortality at 500 ppm [5]

CC(NC(=O)c1cc(Cl)nc(C(F)(F)F)c1)c1nccnc1-n1nccn1 (centres unmarked) [Compound P22, 2-chloro-N-[1-[3-(triazol-2-yl)pyrazin-2-yl]ethyl]-6-(trifluoromethyl)pyridine-4-carboxamide]
≥ 80%: percent control (mortality or growth inhibition) at 200 ppm [1] | percent control (mortality, anti-feedant effect or growth inhibition) at 200 ppm [2] | percent control (mortality or growth inhibition) at 200 ppm [3] | percent control (mortality, anti-feedant effect or growth inhibition) at 200 ppm [4] | mortality at 500 ppm [5] | mortality at 50 ppm [7]

CC(NC(=O)c1cc(C(F)(F)F)nc(C2(C#N)CC2)c1)c1nccnc1-n1nccn1 (centres unmarked) [Compound P14, 2-(1-cyanocyclopropyl)-N-[1-[3-(triazol-2-yl)pyrazin-2-yl]ethyl]-6-(trifluoromethyl)pyridine-4-carboxamide]
≥ 80%: percent control (mortality or growth inhibition) at 200 ppm [1] | percent control (mortality or growth inhibition) at 200 ppm [6] | percent control (mortality, anti-feedant effect or growth inhibition) at 200 ppm [2] | percent control (mortality or growth inhibition) at 200 ppm [3] | percent control (mortality, anti-feedant effect or growth inhibition) at 200 ppm [4]
